Assay results reported in patent US20030162191A1, “Enzymes and uses relating thereto” (priority 2000, published 2003).

Assays:
pH7 nSMase = target: T1, pH7 nSMase (Homo sapiens, UniProt Q92485); assay: pH7 nSMase assay in the presence of C11AG (membranes from Jurkat cells, Tris pH6.5); format: biochemical; conditions: pH7 nSMase versus pH8 nSMase
T1 construct: For pH7 nSMase assays, membranes from Jurkat cells (human T-cell lymphoma) were used; endogenous in cells; host or cells: Jurkat (human T-cell lymphoma) membranes, Triton X-100 eluate
T1 sequence (Q92485 19-455): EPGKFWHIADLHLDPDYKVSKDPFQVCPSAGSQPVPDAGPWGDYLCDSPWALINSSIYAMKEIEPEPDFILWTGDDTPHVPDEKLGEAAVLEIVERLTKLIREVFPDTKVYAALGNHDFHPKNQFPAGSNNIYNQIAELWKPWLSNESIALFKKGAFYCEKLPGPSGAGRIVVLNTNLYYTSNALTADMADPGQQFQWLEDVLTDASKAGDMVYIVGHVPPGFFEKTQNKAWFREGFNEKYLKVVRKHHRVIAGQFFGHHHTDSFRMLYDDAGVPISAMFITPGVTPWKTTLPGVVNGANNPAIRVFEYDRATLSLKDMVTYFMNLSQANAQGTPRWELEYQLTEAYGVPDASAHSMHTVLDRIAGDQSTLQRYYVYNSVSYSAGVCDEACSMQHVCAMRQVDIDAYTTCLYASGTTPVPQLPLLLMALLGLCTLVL
Method: SMase activities were determined in the presence of 0, 1, 10, 100 or 1000 μg/ml C11AG. C11AG-acetate was used as a stock solution of 10 mg/ml in water.
For pH7 nSMase assays, membranes from Jurkat cells (human T-cell lymphoma) were used.
From each preparation 5 μg of protein were used for (1) a pH7 nSMase assay (in 50 μl 50 mM Tris pH6.5, 5 mM MgCl2, 1 mM NaF, 1 mM NaVO3, 0.1% Triton X 100, 20 nCi ^14C sphingomyelin), (2) a pH8 nSMase assay (in 50 μl 50 mM Tris pH8.5, 5 mM MgCl2, 1 mM NaF, 1 mM NaVO3, 0.1% Triton X 100, 20 nCi ^14C sphingomyelin) and (3) an acidic SMase assay (in 50 μl 50 mM NaH2PO4 pH5.0, 5 mM MgCl2, 1 mM NaF, 1 mM NaVO3, 0.1% Triton X 100, 20 nCi ^14C sphingomyelin).
After 30 minutes phosphorylcholine (PCH) was extracted by the addition of 2 volumes methanol/chloroform (2/1). PCH counts were determined in an aliquot of 10 μl after separation on TLC plates (Merck 60, F254, running solvent: 0.9% NaCl/methanol/NH4OH (50/70/5, V/V/V) in a Digital Autoradiograph. PCH counts of the uninhibited reaction were set 100% enzyme activity. Each assay was done in quadruplicate.

[1] = tested on: Human T-cell lymphoma cells (Jurkat); assay: Stimulation of anti-APO-1 (anti-CD95) induced apoptosis in Jurkat cells; format: cell-based; conditions: C11AG at 1 μg/ml, 24 hours, 37° C., FIG. 7
Method: Human T-cell lymphoma cells (Jurkat) were seeded in 96-well plates at a density of 10^5 cells per ml. An antibody directed against CD95 (anti-APO-1) was added at various concentrations with and without C11AG at 1 μg/ml. After incubation at 37° C. for 24 hours, cell numbers were determined afer vital staining. By Nicoleti staining it was confirmed that dead cells had died due to apoptosis. All assays were done in triplicate.

[2] = tested on: cells with or lacking pH8 nSMase; assay: Sensitivity of cells to C11AG according to pH8 nSMase expression; format: cell-based

fold more active on pH7 nSMase than on pH8 nSMase (pH7 nSMase): 200-1000 fold
Structure (SMILES): CCCCCCCCCCC=NNC(=N)N [C11AG, 1-(undecylidene-amino)guanidine]
induction of apoptosis by anti-APO-1 [1]: stimulated induction of apoptosis
response to C11AG of cells which have both pH7 nSMase and pH8 nSMase ([2]; cells with both pH7 nSMase and pH8 nSMase): show resistance
response to C11AG of cells lacking pH8 nSMase ([2]; solid tumour cells, T cell lymphoma cells, activated or autoreactive T cells): are sensitive
